# Source: patent US20100029590A1, “METHODS FOR TREATING OR PREVENTING HEMORRHAGIC CYSTITIS USING A GLYCEROPHOSPHATE SALT” (PRELIEF INC., priority 2007, published 2010)
# Tested on: patients suffering from radiation cystitis
# Experiment: Clinical observation of radiation cystitis patients after prostatic brachytherapy given oral Prelief® (CGP): average number of micturitions per night and symptoms
# Type: in vivo, human
# Conditions: for frequency of urination: six patients
# From the text: This example depicts a method of using calcium glycerophosphate (CGP) in treating radiation cystitis in a clinical setting. Methods similar to that exemplified herein, however, is equally applicable to using any glycerophosphate salt in treating or preventing any type of hemorrhagic cystitis.
# All six patients, aging from 51 to 74 year old at the time, were under prostatic brachytherapy treatment. […] Two Prelief® tablets, each containing about 0.335 gram CGP, were orally administered to each patient three times a day starting at about 0 to 8 months after the brachytherapy. […] Some patients were also treated with another therapy after the radiation, such as by a stent, or with the administration of AINES, Trospium Chloride, or Tamsulosina. On their post brachytherapy visitations, each patient was asked, among other things, the average number of micturitions per night.
# This is in comparison to up to 12 times per night expected micturations in severe cases of this type when patients are given regular medications. The frequency of urination was further reduced by continuing oral administration of CGP.
# 14, 2002. […] Oral administration of CGP was again reported to be effective in reducing symptoms of hemorrhagic cystitis, e.g., the frequency of urination was reduced to about 7 times or about 2.5 times per night after oral administration of CGP for about 4 months or about 9 months, respectively, following the removal of the stent.
substance,measurement,setting,value
calcium glycerophosphate [CGP],"frequency of urination, patient #1","patient #1, about 1 month following removal of a stent (increased symptoms)",about 11 times per night
same,"frequency of urination, patient #1","patient #1, about 3 months following brachytherapy, before oral CGP (baseline)",about 11 times per night
same,"frequency of urination, patient #1","patient #1, after oral administration of CGP for about 5 months",about 7 times per night
same,"frequency of urination, patient #1","patient #1, oral CGP for about 4 months following removal of the stent",about 7 times per night
same,"frequency of urination, patient #1","patient #1, oral CGP for about 9 months following removal of the stent",about 2.5 times per night
same,symptoms of radiation cystitis,reported by each of the six patients after oral administration of CGP,Reduced symptoms of radiation cystitis
same,pain in bladder,"reported by the patients, oral CGP (data not shown)",reduced pain in bladder
same,frequency of urination,after oral administration of CGP for about three months,4.5-7 times per night
same,frequency of urination,before oral administration of CGP (baseline),8-11 times per night
same,frequency of urination,succeeding seven months of oral CGP,3-7 times per night
